In patent US9382254B2, “Compounds and pharmaceutical compositions thereof for the treatment of cystic fibrosis” (Galapagos NV, priority 2013, dated 2016):

Assays:
Assay type in all cases: cell-based
CFTR ΔF508 mutant [1] = target: T1, CFTR ΔF508 mutant (Homo sapiens, UniProt P13569, DEL508-508); assay: YFP-halide influx assay for the CFTR-ΔF508 mutation, PBS buffer (96 well); conditions: CFBE41o- cells, forskolin 10.67 μM
T1 construct: expressed in transfected cells; host or cells: CFBE41o- (adenoviral transduction)
T1 sequence (P13569 with tags, fused parts or gaps DEL508-508): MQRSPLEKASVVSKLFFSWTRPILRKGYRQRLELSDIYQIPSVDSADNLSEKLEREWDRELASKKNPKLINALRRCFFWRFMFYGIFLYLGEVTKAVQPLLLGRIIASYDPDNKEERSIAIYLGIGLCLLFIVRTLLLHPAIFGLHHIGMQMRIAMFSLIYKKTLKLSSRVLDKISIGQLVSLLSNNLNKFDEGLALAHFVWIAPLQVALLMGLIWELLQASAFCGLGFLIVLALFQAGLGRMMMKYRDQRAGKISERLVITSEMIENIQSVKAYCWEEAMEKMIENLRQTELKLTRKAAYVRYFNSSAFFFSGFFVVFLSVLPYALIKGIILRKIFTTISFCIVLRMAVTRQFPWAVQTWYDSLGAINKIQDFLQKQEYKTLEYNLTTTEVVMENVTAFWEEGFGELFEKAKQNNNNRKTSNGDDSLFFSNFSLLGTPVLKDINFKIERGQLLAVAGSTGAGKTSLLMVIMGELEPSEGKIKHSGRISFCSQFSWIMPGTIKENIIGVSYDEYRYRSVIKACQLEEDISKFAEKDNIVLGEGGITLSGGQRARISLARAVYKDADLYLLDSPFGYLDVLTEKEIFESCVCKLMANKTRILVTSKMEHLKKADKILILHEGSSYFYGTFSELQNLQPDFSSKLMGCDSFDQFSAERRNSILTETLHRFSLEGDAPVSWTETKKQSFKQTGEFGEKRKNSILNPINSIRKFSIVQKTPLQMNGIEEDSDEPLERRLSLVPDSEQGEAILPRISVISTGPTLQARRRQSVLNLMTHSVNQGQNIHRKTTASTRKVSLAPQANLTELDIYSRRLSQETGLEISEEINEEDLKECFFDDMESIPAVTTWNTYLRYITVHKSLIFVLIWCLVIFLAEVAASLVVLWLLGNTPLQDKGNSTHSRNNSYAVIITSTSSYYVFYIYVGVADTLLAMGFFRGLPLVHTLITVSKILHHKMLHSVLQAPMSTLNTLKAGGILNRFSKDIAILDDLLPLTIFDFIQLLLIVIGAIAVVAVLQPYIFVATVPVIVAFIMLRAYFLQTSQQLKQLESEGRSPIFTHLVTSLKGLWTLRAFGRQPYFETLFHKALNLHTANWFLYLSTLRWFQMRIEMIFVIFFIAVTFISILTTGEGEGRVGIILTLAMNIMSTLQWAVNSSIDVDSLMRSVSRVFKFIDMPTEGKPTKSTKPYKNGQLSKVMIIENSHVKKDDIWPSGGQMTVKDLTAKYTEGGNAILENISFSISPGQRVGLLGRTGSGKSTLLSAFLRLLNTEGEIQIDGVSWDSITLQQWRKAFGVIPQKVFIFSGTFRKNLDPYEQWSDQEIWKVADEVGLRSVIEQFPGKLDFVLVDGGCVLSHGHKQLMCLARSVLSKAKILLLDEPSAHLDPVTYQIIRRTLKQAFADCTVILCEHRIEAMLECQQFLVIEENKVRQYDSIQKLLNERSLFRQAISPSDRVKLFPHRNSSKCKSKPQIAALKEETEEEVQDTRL
Description: The YFP halide influx assay measures the functionality of the cystic fibrosis Transmembrane Conductance regulator (CFTR) channels in the cystic fibrosis bronchial epithelium cell line CFBE41o-. The assay is used to evaluate the capacity of compounds to increase the open probability of existing CFTR channels in the membrane. It makes use of the observation that the yellow fluorescent protein (YFP) variant YFP H148Q, I152L has its fluorescence substantially quenched by halide ions like Cl^− and I^−. (Galietta, Haggie, & Verkman, 2001) (Nagai, et al., 2002)
For this purpose, CFBE41o-cells are seeded in 96 well plates (6000 CFBE cells/well). One day after seeding, the CFBE cells are transduced with adenoviral vectors that direct the expression of the CFTR ΔF508 mutant and of the YFP reporter. Cells are incubated at 27° C., 5% CO2 for 24 hours so as to allow for the proper folding and migration to the membrane of the CFTR channel or treated with a CFTR modulator during 24 hours at 37° C.
The I^− induced quenching of fluorescence is recorded immediately after injection of I^− for 7 seconds. The capacity of a compound to increase the channel opening is directly correlated with the decrease in fluorescence, and is expressed as (1-(fluorescence after 7 seconds (F)/fluorescence before injection (F0))) and an EC50 can be derived from a (1-F/F0) vs compound concentration plot.

CFTR ΔF508 mutant [2] = target: T1, CFTR ΔF508 mutant; assay: YFP-halide influx assay for the CFTR-ΔF508 mutation (384 well, FDSS/μCell); conditions: CFBE41o- cells, CFTR-ΔF508, 1×D-PBS, fluorescence after 36 seconds
Summary of the method: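 Potentiator read-out as 1−F/F0, F taken 36 s after iodide addition, EC50 fitted against compound concentration. Cells: CFBE41o- expressing ΔF508 CFTR plus halide-sensitive YFP via adenovirus, rescued by 27 °C for 24 h or 24 h modulator at 37 °C.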

CFTR G551D mutant = target: T2, CFTR G551D mutant (Homo sapiens, UniProt P13569, G551D); assay: YFP-halide influx assay for the CFTR-G551D mutation; conditions: HEK293 cells, forskolin 10.67 μM
T2 construct: expressed in transfected cells; host or cells: HEK293 (reverse transfection with plasmid)
T2 sequence (P13569 whole entry G551D): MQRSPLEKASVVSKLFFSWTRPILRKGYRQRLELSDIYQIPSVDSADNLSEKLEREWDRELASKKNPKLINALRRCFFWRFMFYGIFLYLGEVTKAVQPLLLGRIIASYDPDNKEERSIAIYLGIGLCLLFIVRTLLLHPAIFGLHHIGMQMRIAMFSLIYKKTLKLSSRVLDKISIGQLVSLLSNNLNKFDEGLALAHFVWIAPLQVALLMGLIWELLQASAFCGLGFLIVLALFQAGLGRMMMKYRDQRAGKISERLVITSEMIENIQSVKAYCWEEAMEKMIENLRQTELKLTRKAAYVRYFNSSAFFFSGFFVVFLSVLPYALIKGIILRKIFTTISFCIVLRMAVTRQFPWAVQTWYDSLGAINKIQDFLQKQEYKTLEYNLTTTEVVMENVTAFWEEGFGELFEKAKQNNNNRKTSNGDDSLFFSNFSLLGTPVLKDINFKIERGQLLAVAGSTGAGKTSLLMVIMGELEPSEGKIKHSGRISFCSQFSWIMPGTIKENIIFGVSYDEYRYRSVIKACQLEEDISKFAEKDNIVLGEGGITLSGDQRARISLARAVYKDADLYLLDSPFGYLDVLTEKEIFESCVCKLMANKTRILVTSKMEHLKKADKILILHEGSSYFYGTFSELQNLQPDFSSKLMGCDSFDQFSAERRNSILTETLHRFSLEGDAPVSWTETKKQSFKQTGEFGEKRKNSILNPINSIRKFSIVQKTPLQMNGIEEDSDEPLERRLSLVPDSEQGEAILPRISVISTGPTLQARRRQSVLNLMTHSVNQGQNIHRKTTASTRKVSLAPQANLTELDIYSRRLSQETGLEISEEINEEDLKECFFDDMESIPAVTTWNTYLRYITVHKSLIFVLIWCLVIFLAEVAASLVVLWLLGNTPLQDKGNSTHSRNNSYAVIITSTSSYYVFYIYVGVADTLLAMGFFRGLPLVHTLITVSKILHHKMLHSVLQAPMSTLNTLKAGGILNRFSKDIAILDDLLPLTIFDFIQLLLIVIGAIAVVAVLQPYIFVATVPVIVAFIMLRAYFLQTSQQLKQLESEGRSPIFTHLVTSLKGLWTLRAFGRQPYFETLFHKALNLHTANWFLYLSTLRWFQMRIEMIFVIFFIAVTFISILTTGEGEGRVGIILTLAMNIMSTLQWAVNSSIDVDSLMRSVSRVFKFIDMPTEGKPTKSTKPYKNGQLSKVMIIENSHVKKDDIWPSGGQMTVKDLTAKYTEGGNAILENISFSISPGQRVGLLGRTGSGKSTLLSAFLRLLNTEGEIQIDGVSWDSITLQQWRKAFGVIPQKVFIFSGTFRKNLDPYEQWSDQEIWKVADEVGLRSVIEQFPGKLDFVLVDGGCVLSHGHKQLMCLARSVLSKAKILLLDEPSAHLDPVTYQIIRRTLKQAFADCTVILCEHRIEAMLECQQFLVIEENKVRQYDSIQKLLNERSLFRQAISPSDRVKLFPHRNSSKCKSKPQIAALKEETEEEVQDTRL
Summary of the method: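 Channel opening potentiation measured as 1−F/F0, where F is YFP fluorescence 7 s after iodide injection and F0 before; EC50 taken from concentration plot. Cells: HEK293 transiently expressing CFTR G551D plus halide-sensitive YFP (H148Q, I152L, F47L), 24 h at 37 °C, 5% CO2.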

SMILES | EC50 (CFTR ΔF508 mutant [1]) | EC50 (CFTR ΔF508 mutant [2]) | EC50 (CFTR G551D mutant)
CC1CN(S(=O)(=O)c2cc(C(N)=O)c(NC(=O)c3ccccc3C(F)(F)F)s2)C(C)(C)CO1 (stereo not drawn) [Compound 263, 2-(2-(trifluoromethyl)benzamido)-5-(2,5,5-trimethylmorpholinosulfonyl) thiophene-3-carboxamide] | 81.1 nM | 148 nM | 3330 nM
NC(=O)c1cc(S(=O)(=O)c2ccc(F)cc2Br)sc1NC(=O)C1(O)CC1 [Compound 264, 5-(2-bromo-4-fluorophenylsulfonyl)-2-(1-hydroxycyclopropanecarboxamido) thiophene-3-carboxamide] | 30.1 nM | 19.4 nM | 1020 nM
CC(C)Oc1cccc(S(=O)(=O)c2cc(C(N)=O)c(NC(=O)C(C)(C)O)s2)c1 [Compound 265, 2-(2-hydroxy-2-methylpropanamido)-5-(3-isopropoxyphenylsulfonyl) thiophene-3-carboxamide] | 42.2 nM | 91.7 nM | 2000 nM
CC(C)(O)C(=O)Nc1sc(S(=O)(=O)c2cccc(OC(F)(F)F)c2)cc1C(N)=O [Compound 269, 2-(2-hydroxy-2-methylpropanamido)-5-(3-(trifluoromethoxy)phenylsulfonyl) thiophene-3-carboxamide] | 33 nM | 10.1 nM | 935 nM
NC(=O)c1cc(S(=O)(=O)c2ccc(F)cc2)sc1NC(=O)C1CCCC1O (stereo not drawn) [Compound 272, 5-(4-fluorophenylsulfonyl)-2-(2-hydroxycyclopentanecarboxamido) thiophene-3-carboxamide] | 48.9 nM | 102 nM | 771 nM
CC(CO)C(=O)Nc1sc(S(=O)(=O)c2ccc(F)cc2)cc1C(N)=O (stereo not drawn) [Compound 273, 5-(4-fluorophenylsulfonyl)-2-(3-hydroxy-2-methylpropanamido) thiophene-3-carboxamide] | 111 nM | 148 nM | 3080 nM
CC(C)Oc1ccc(S(=O)(=O)c2cc(C(N)=O)c(NC(=O)C(C)(C)O)s2)cc1 [Compound 279, 2-(2-hydroxy-2-methylpropanamido)-5-(4-isopropoxyphenylsulfonyl) thiophene-3-carboxamide] | 55.5 nM | 116 nM | 614 nM
NC(=O)c1cc(S(=O)(=O)c2ccc(F)cc2)sc1NC(=O)C1CCCCC1O (stereo not drawn) [Compound 280, 5-(4-fluorophenylsulfonyl)-2-(2-hydroxycyclohexanecarboxamido) thiophene-3-carboxamide] | 28 nM | 117 nM | 1660 nM
CC(C)Oc1cc(F)ccc1S(=O)(=O)c1cc(C(N)=O)c(NC(=O)C(C)(C)O)s1 [Compound 281, 5-(4-fluoro-2-isopropoxyphenylsulfonyl)-2-(2-hydroxy-2-methylpropanamido) thiophene-3-carboxamide] | 41.1 nM | 136 nM | 1540 nM
CC(C)(O)C(=O)Nc1sc(S(=O)(=O)c2ccc(F)cc2OC(F)F)cc1C(N)=O [Compound 283, 5-(2-(difluoromethoxy)-4-fluorophenylsulfonyl)-2-(2-hydroxy-2-methylpropanamido) thiophene-3-carboxamide] | 47.7 nM | 69.6 nM | 564 nM
COc1ccc(S(=O)(=O)c2cc(C(N)=O)c(NC(=O)C(C)(C)O)s2)c(OC(F)F)c1 [Compound 284, 5-(2-(difluoromethoxy)-4-methoxyphenylsulfonyl)-2-(2-hydroxy-2-methylpropanamido) thiophene-3-carboxamide] | 51 nM | 85.2 nM | 793 nM
CC(C)(O)C(=O)Nc1sc(S(=O)(=O)c2ccccc2C(F)(F)F)cc1C(N)=O [Compound 289, 2-(2-hydroxy-2-methylpropanamido)-5-(2-(trifluoromethyl)phenylsulfonyl) thiophene-3-carboxamide] | 31.1 nM | 28.4 nM | 191 nM
C[C@H](O)C(=O)Nc1sc(S(=O)(=O)c2ccc(F)cc2)cc1C(N)=O [Compound 291, (S)-5-(4-fluorophenylsulfonyl)-2-(2-hydroxypropanamido) thiophene-3-carboxamide] | 81.2 nM | 17.3 nM | 1510 nM
CN(C)c1cccc(S(=O)(=O)c2cc(C(N)=O)c(NC(=O)C(C)(C)O)s2)c1 [Compound 292, 5-(3-(dimethylamino)phenylsulfonyl)-2-(2-hydroxy-2-methylpropanamido) thiophene-3-carboxamide] | 70 nM | 182 nM | 2280 nM
CC(C)c1ccccc1S(=O)(=O)c1cc(C(N)=O)c(NC(=O)C(C)(C)O)s1 [Compound 293, 2-(2-hydroxy-2-methylpropanamido)-5-(2-isopropylphenylsulfonyl) thiophene-3-carboxamide] | 15.1 nM | 7.6 nM | 110 nM
COc1ccc(F)cc1S(=O)(=O)c1cc(C(N)=O)c(NC(=O)C(C)(C)O)s1 [Compound 295, 5-(5-fluoro-2-methoxyphenylsulfonyl)-2-(2-hydroxy-2-methylpropanamido) thiophene-3-carboxamide] | 95.2 nM | 35.6 nM | 1010 nM
CC(C)(O)C(=O)Nc1sc(S(=O)(=O)c2ccccc2CC(F)(F)F)cc1C(N)=O [Compound 302, 2-(2-hydroxy-2-methylpropanamido)-5-(2-(2,2,2-trifluoroethyl)phenylsulfonyl) thiophene-3-carboxamide] | 11.3 nM | 8.1 nM | 307 nM
CC(C)(O)C(=O)Nc1sc(S(=O)(=O)c2cc(Cl)ccc2F)cc1C(N)=O [Compound 303, 5-(5-chloro-2-fluorophenylsulfonyl)-2-(2-hydroxy-2-methylpropanamido) thiophene-3-carboxamide] | 37.5 nM | 8.5 nM | 1670 nM
CN(c1ccc(F)cc1)S(=O)(=O)c1cc(C(N)=O)c(NC(=O)C(C)(C)O)s1 [Compound 304, 5-(N-(4-fluorophenyl)-N-methylsulfamoyl)-2-(2-hydroxy-2-methylpropanamido) thiophene-3-carboxamide] | 78.5 nM | 109 nM | 3330 nM
CN(Cc1ccc(F)cc1)S(=O)(=O)c1cc(C(N)=O)c(NC(=O)C(C)(C)O)s1 [Compound 305, 5-(N-(4-fluorobenzyl)-N-methylsulfamoyl)-2-(2-hydroxy-2-methylpropanamido) thiophene-3-carboxamide] | 31.5 nM | 23.9 nM | 803 nM
CC(C)(O)C(=O)Nc1sc(S(=O)(=O)N2CCOc3ccccc32)cc1C(N)=O [Compound 307, 5-(2H-benzo[b][1,4]oxazin-4(3H)-ylsulfonyl)-2-(2-hydroxy-2-methylpropanamido) thiophene-3-carboxamide] | 32.8 nM | 28.5 nM | 793 nM
CC(C)(O)C(=O)Nc1sc(S(=O)(=O)c2ccc3c(c2)OC(F)(F)O3)cc1C(N)=O [Compound 310, 5-(2,2-difluorobenzo[d][1,3]dioxol-5-ylsulfonyl)-2-(2-hydroxy-2-methylpropanamido) thiophene-3-carboxamide] | 42.6 nM | 66.1 nM | 1760 nM
CC(O)C(=O)Nc1sc(S(=O)(=O)c2ccccc2OC(F)(F)F)cc1C(N)=O (stereo not drawn) [Compound 311, 2-(2-hydroxypropanamido)-5-(2-(trifluoromethoxy)phenylsulfonyl) thiophene-3-carboxamide] | 15.2 nM | 3.5 nM | 607 nM
